# Assay results published in PubChem BioAssay AID2060486 (Molecular Pharmacology Branch, DTP, NCI, 2025).
# Tested on: IGROV1 complex spheroids (HUVEC, MSC), viability % test/control
# Test: Anticancer human tumor IGROV1 cell line growth inhibition [GQUAD];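 note: spheroids exposed to compounds for 7 days before readout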;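 for viability, T/C: 100% = DMSO vehicle control viability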
# Details: for IC50: curve of first compound; for viability, T/C: stronger effect = lower value
# In short: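 Tumor cells were grown as complex spheroids with HUVEC endothelial cells and mesenchymal stem cells as stroma. G-quadruplex stabilizers were combined with targeted agents over half-log dilutions from near the clinical Cmax, or from 10 microM.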
# [1] = second compound 0.0316 µM, first compound 0.0316 µM
# [2] = second compound 0.0316 µM, first compound 0.1 µM
# [3] = second compound 0.0316 µM, first compound 0.316 µM
# [4] = second compound 0.0316 µM, first compound 1 µM
# [5] = second compound 0.0316 µM, first compound 3.16 µM
# [6] = second compound 0.0316 µM, first compound 10 µM
# [7] = second compound 0.1 µM, first compound 0.0316 µM
# [8] = second compound 0.1 µM, first compound 0.1 µM
# [9] = second compound 0.1 µM, first compound 0.316 µM
# [10] = second compound 0.1 µM, first compound 1 µM
# [11] = second compound 0.1 µM, first compound 3.16 µM
# [12] = second compound 0.1 µM, first compound 10 µM
# [13] = second compound 0.316 µM, first compound 0.0316 µM
# [14] = second compound 0.316 µM, first compound 0.1 µM
# [15] = second compound 0.316 µM, first compound 0.316 µM
# [16] = second compound 0.316 µM, first compound 1 µM
# [17] = second compound 0.316 µM, first compound 3.16 µM
# [18] = second compound 0.316 µM, first compound 10 µM
# [19] = second compound 1 µM, first compound 0.0316 µM
# [20] = second compound 1 µM, first compound 0.1 µM
# [21] = second compound 1 µM, first compound 0.316 µM
# [22] = second compound 1 µM, first compound 1 µM
# [23] = second compound 1 µM, first compound 3.16 µM
# [24] = second compound 1 µM, first compound 10 µM
# [25] = second compound 3.16 µM, first compound 0.0316 µM
# [26] = second compound 3.16 µM, first compound 0.1 µM
# [27] = second compound 3.16 µM, first compound 0.316 µM
# [28] = second compound 3.16 µM, first compound 1 µM
# [29] = second compound 3.16 µM, first compound 3.16 µM
# [30] = second compound 3.16 µM, first compound 10 µM
# [31] = second compound 10 µM, first compound 0.0316 µM
# [32] = second compound 10 µM, first compound 0.1 µM
# [33] = second compound 10 µM, first compound 0.316 µM
# [34] = second compound 10 µM, first compound 1 µM
# [35] = second compound 10 µM, first compound 3.16 µM
# [36] = second compound 10 µM, first compound 10 µM
structure (smiles),measurement,setting,value
C=CCn1c(=O)c2cnc(Nc3ccc(N4CCN(C)CC4)cc3)nc2n1-c1cccc(C(C)(C)O)n1 + CN(C)c1ccc(Nc2c3ccc(NC(=O)CCN4CCCC4)cc3nc3cc(NC(=O)CCN4CCCC4)ccc23)cc1,IC50,second compound 0.0316 µM,153 nM
same,IC50,second compound 0.1 µM,145 nM
same,IC50,second compound 0.316 µM,138 nM
same,IC50,second compound 1 µM,136 nM
same,IC50,second compound 3.16 µM,112 nM
same,IC50,second compound 10 µM,< 31.6 nM
same,"viability, T/C",[1],92.4%
same,"viability, T/C",[2],72.3%
same,"viability, T/C",[3],12.3%
same,"viability, T/C",[4],3.27%
same,"viability, T/C",[5],3.29%
same,"viability, T/C",[6],2.49%
same,"viability, T/C",[7],90.8%
same,"viability, T/C",[8],68.1%
same,"viability, T/C",[9],12.1%
same,"viability, T/C",[10],2.73%
same,"viability, T/C",[11],2.54%
same,"viability, T/C",[12],2.34%
same,"viability, T/C",[13],76.4%
same,"viability, T/C",[14],65.5%
same,"viability, T/C",[15],10.3%
same,"viability, T/C",[16],3.01%
same,"viability, T/C",[17],2.63%
same,"viability, T/C",[18],1.87%
same,"viability, T/C",[19],61.6%
same,"viability, T/C",[20],69.2%
same,"viability, T/C",[21],8.29%
same,"viability, T/C",[22],2.65%
same,"viability, T/C",[23],2.66%
same,"viability, T/C",[24],2.32%
same,"viability, T/C",[25],67.7%
same,"viability, T/C",[26],54.5%
same,"viability, T/C",[27],7.41%
same,"viability, T/C",[28],3.03%
same,"viability, T/C",[29],2.47%
same,"viability, T/C",[30],1.97%
same,"viability, T/C",[31],37.6%
same,"viability, T/C",[32],27.4%
same,"viability, T/C",[33],5.31%
same,"viability, T/C",[34],2.61%
same,"viability, T/C",[35],1.87%
same,"viability, T/C",[36],1.28%
Cc1cccc(N(C)C(=O)C2C(O)CCN2c2nc(C)cc(C(F)(F)F)c2C#N)c1 (stereo not given) + Cc1[nH]c2ccc(F)cc2c1-c1nc2c3cccnc3c3ncccc3c2[nH]1,IC50,second compound 0.0316 µM,> 10000 nM
same,IC50,second compound 0.1 µM,> 10000 nM
same,IC50,second compound 0.316 µM,> 10000 nM
same,IC50,second compound 1 µM,< 31.6 nM
same,IC50,second compound 3.16 µM,< 31.6 nM
same,IC50,second compound 10 µM,< 31.6 nM
same,"viability, T/C",[1],108%
same,"viability, T/C",[2],82.3%
same,"viability, T/C",[3],105%
same,"viability, T/C",[4],76.1%
same,"viability, T/C",[5],98%
same,"viability, T/C",[6],100%
same,"viability, T/C",[7],105%
same,"viability, T/C",[8],82.2%
same,"viability, T/C",[9],107%
same,"viability, T/C",[10],69.1%
same,"viability, T/C",[11],105%
same,"viability, T/C",[12],105%
same,"viability, T/C",[13],83.7%
same,"viability, T/C",[14],53.2%
same,"viability, T/C",[15],70%
same,"viability, T/C",[16],78.8%
same,"viability, T/C",[17],94.7%
same,"viability, T/C",[18],76.3%
same,"viability, T/C",[19],4%
same,"viability, T/C",[20],6.22%
same,"viability, T/C",[21],5.36%
same,"viability, T/C",[22],4.57%
same,"viability, T/C",[23],4.11%
same,"viability, T/C",[24],2.68%
same,"viability, T/C",[25],3.63%
same,"viability, T/C",[26],4.69%
same,"viability, T/C",[27],4.7%
same,"viability, T/C",[28],4.75%
same,"viability, T/C",[29],3.97%
same,"viability, T/C",[30],2.92%
same,"viability, T/C",[31],4.3%
same,"viability, T/C",[32],3.62%
same,"viability, T/C",[33],4.75%
same,"viability, T/C",[34],3.64%
same,"viability, T/C",[35],4.04%
same,"viability, T/C",[36],3.25%
CC(C)(O)C1CCC(Nc2ccc3ncc(-c4cccc(C(F)(F)F)c4)n3n2)CC1 (stereo not given) + Cc1[nH]c2ccc(F)cc2c1-c1nc2c3cccnc3c3ncccc3c2[nH]1,IC50,second compound 0.0316 µM,2010 nM
same,IC50,second compound 0.1 µM,1820 nM
same,IC50,second compound 0.316 µM,623 nM
same,IC50,second compound 1 µM,< 31.6 nM
same,IC50,second compound 3.16 µM,< 31.6 nM
same,IC50,second compound 10 µM,< 31.6 nM
same,"viability, T/C",[1],93.8%
same,"viability, T/C",[2],83.1%
same,"viability, T/C",[3],94.3%
same,"viability, T/C",[4],82.7%
same,"viability, T/C",[5],27.4%
same,"viability, T/C",[6],30%
same,"viability, T/C",[7],99.3%
same,"viability, T/C",[8],83.3%
same,"viability, T/C",[9],102%
same,"viability, T/C",[10],68.5%
same,"viability, T/C",[11],32.9%
same,"viability, T/C",[12],33.4%
same,"viability, T/C",[13],69.6%
same,"viability, T/C",[14],70.6%
same,"viability, T/C",[15],65.3%
same,"viability, T/C",[16],38.8%
same,"viability, T/C",[17],6.69%
same,"viability, T/C",[18],5.42%
same,"viability, T/C",[19],3.27%
same,"viability, T/C",[20],3.08%
same,"viability, T/C",[21],4.14%
same,"viability, T/C",[22],3.08%
same,"viability, T/C",[23],3.37%
same,"viability, T/C",[24],2.43%
same,"viability, T/C",[25],2.86%
same,"viability, T/C",[26],3.13%
same,"viability, T/C",[27],3.35%
same,"viability, T/C",[28],3.26%
same,"viability, T/C",[29],2.39%
same,"viability, T/C",[30],2.06%
same,"viability, T/C",[31],3.41%
same,"viability, T/C",[32],3.18%
same,"viability, T/C",[33],3.27%
same,"viability, T/C",[34],2.99%
same,"viability, T/C",[35],2.37%
same,"viability, T/C",[36],2.38%
COc1ccc([C@@H](O)c2cc(-c3ncnc4cc(N5CCOCC5)ccc34)c(F)cc2Cl)nn1 + Cc1[nH]c2ccc(F)cc2c1-c1nc2c3cccnc3c3ncccc3c2[nH]1,IC50,second compound 0.0316 µM,797 nM
same,IC50,second compound 0.1 µM,812 nM
same,IC50,second compound 0.316 µM,762 nM
same,IC50,second compound 1 µM,< 31.6 nM
same,IC50,second compound 3.16 µM,< 31.6 nM
same,IC50,second compound 10 µM,< 31.6 nM
same,"viability, T/C",[1],92%
same,"viability, T/C",[2],76.5%
same,"viability, T/C",[3],86.5%
same,"viability, T/C",[4],40.7%
same,"viability, T/C",[5],21.9%
same,"viability, T/C",[6],6.2%
same,"viability, T/C",[7],92.2%
same,"viability, T/C",[8],89.6%
same,"viability, T/C",[9],91.5%
same,"viability, T/C",[10],40.6%
same,"viability, T/C",[11],19.5%
same,"viability, T/C",[12],5.14%
same,"viability, T/C",[13],66.3%
same,"viability, T/C",[14],83.1%
same,"viability, T/C",[15],82.6%
same,"viability, T/C",[16],41.5%
same,"viability, T/C",[17],12.3%
same,"viability, T/C",[18],4.85%
same,"viability, T/C",[19],3.85%
same,"viability, T/C",[20],4.89%
same,"viability, T/C",[21],4.79%
same,"viability, T/C",[22],4.97%
same,"viability, T/C",[23],4%
same,"viability, T/C",[24],5.1%
same,"viability, T/C",[25],3.89%
same,"viability, T/C",[26],4.57%
same,"viability, T/C",[27],3.71%
same,"viability, T/C",[28],4.88%
same,"viability, T/C",[29],3.87%
same,"viability, T/C",[30],3.46%
same,"viability, T/C",[31],3.68%
same,"viability, T/C",[32],3.5%
same,"viability, T/C",[33],4.28%
same,"viability, T/C",[34],4.13%
same,"viability, T/C",[35],5.35%
same,"viability, T/C",[36],3.84%
C=CCn1c(=O)c2cnc(Nc3ccc(N4CCN(C)CC4)cc3)nc2n1-c1cccc(C(C)(C)O)n1 + Cc1cnc(CNC(=O)c2c(=O)c3ccc(N4CCCN(C)CC4)nc3n3c2sc2ccccc23)cn1,IC50,second compound 0.0316 µM,45.1 nM
same,IC50,second compound 0.1 µM,< 31.6 nM
same,IC50,second compound 0.316 µM,< 31.6 nM
same,IC50,second compound 1 µM,< 31.6 nM
same,IC50,second compound 3.16 µM,< 31.6 nM
same,IC50,second compound 10 µM,< 31.6 nM
same,"viability, T/C",[1],59%
same,"viability, T/C",[2],29.8%
same,"viability, T/C",[3],5.19%
same,"viability, T/C",[4],2.29%
same,"viability, T/C",[5],2.42%
same,"viability, T/C",[6],1.97%
same,"viability, T/C",[7],23.5%
same,"viability, T/C",[8],18%
same,"viability, T/C",[9],4.3%
same,"viability, T/C",[10],2.46%
same,"viability, T/C",[11],2.38%
same,"viability, T/C",[12],2.57%
same,"viability, T/C",[13],16.9%
same,"viability, T/C",[14],9.27%
same,"viability, T/C",[15],4.48%
same,"viability, T/C",[16],2.42%
same,"viability, T/C",[17],2.95%
same,"viability, T/C",[18],2.48%
same,"viability, T/C",[19],9.95%
same,"viability, T/C",[20],9.65%
same,"viability, T/C",[21],3.88%
same,"viability, T/C",[22],3.14%
same,"viability, T/C",[23],3.18%
same,"viability, T/C",[24],3.24%
same,"viability, T/C",[25],11.6%
same,"viability, T/C",[26],7.96%
same,"viability, T/C",[27],4.12%
same,"viability, T/C",[28],3.52%
same,"viability, T/C",[29],3.96%
same,"viability, T/C",[30],3.47%
same,"viability, T/C",[31],7.24%
same,"viability, T/C",[32],6.29%
same,"viability, T/C",[33],4.68%
same,"viability, T/C",[34],3.1%
same,"viability, T/C",[35],4.62%
same,"viability, T/C",[36],2.93%
